The record followed here is ChEMBL document CHEMBL4014283, “Structural insights of SmKDAC8 inhibitors: Targeting Schistosoma epigenetics through a combined structure-based 3D QSAR, in vitro and synthesis strategy” (Bioorg Med Chem, 2017).

The source made the active and inactive calls. The rule behind the calls is not given here.

Data set [1] deals with KDAC3/NCOR2 (histone deacetylase 3/nuclear receptor corepressor 2 complex) (Homo sapiens, UniProt O15379). Nature of the data set: (§1) Inhibition of full length human C-terminal His-tagged KDAC3/N-terminal GST-tagged human NCOR2 (395 to 489 residues) expressed in baculovirus expression system at 30 uM using FITC-p53 acetylated peptide as substrate after 60 mins by microfluidic assay. Particulars: probe FITC-p53 acetylated peptide.

The target in the next data set is T1, Histone deacetylase 8 (Homo sapiens, UniProt Q9BY41).
T1 sequence (Q9BY41 whole entry): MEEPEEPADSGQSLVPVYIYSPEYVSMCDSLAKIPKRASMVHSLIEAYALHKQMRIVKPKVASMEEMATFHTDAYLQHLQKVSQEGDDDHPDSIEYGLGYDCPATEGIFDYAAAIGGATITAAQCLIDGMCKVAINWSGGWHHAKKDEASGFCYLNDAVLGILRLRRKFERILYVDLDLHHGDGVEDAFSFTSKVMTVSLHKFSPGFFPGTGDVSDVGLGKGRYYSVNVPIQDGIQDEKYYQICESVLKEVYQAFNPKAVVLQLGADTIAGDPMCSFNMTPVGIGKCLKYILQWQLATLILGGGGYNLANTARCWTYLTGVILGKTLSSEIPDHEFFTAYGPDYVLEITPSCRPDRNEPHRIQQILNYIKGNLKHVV
As to the kind of experiment: (§2) Inhibition of full length human C-terminal His-tagged KDAC8 expressed in baculovirus expression system at 30 uM using (FAM)-labeled peptide as substrate after 60 mins by microfluidic assay relative to control. Particulars: 1 h, 30 µM.

Data set [2] has as its target T2, Protein deacetylase HDAC6 (Homo sapiens, UniProt Q9UBN7).
T2 sequence (Q9UBN7 whole entry): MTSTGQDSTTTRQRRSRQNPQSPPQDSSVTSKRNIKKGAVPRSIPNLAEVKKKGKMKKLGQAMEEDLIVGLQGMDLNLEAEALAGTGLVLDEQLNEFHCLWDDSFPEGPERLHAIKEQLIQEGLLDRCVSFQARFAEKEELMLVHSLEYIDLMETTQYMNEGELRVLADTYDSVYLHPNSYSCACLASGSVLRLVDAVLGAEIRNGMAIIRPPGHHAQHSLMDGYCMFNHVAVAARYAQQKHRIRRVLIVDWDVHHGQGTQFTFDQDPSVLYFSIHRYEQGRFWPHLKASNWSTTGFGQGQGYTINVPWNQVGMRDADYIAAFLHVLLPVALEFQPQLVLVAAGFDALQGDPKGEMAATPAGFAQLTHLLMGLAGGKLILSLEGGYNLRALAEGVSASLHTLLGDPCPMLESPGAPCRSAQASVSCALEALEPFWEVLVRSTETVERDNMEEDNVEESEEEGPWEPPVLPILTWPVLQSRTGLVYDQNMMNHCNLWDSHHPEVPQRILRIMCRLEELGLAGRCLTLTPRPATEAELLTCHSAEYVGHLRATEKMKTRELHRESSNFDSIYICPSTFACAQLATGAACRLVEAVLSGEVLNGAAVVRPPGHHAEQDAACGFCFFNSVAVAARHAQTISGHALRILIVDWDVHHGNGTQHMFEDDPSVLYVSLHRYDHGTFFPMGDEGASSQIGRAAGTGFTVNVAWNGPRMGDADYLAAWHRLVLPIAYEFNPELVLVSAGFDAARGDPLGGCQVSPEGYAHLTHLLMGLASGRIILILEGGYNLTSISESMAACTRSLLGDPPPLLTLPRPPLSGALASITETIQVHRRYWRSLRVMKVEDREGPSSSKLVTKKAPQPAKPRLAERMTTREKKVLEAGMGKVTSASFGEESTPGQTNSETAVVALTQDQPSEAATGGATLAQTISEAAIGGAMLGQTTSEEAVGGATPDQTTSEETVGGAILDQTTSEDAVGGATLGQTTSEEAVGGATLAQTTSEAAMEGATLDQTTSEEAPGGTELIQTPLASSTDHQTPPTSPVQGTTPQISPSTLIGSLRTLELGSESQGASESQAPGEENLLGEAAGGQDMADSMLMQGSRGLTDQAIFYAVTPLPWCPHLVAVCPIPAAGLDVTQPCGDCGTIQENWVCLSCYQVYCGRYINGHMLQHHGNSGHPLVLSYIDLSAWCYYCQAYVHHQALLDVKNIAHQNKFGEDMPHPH
As to the kind of experiment: (§3) Inhibition of human KDAC6 expressed in baculovirus expression system at 30 uM using FITC-Histone 4 acetylated peptide as substrate after 60 mins by microfluidic assay. Particulars: 1 h, 30 µM.

Data set [3] concerns the target KDAC1 (histone deacetylase 1) (Homo sapiens, UniProt Q13547). As to the kind of experiment: (§4) Inhibition of full length human C-terminal FLAG/His-tagged KDAC1 expressed in baculovirus expression system at 30 uM using substrate A after 60 mins by microfluidic assay relative to control. Particulars: probe substrate A.
Data set [4] has as its target T3, Histone deacetylase 8 (Schistosoma mansoni) (UniProt A5H660).
T3 sequence (whole entry): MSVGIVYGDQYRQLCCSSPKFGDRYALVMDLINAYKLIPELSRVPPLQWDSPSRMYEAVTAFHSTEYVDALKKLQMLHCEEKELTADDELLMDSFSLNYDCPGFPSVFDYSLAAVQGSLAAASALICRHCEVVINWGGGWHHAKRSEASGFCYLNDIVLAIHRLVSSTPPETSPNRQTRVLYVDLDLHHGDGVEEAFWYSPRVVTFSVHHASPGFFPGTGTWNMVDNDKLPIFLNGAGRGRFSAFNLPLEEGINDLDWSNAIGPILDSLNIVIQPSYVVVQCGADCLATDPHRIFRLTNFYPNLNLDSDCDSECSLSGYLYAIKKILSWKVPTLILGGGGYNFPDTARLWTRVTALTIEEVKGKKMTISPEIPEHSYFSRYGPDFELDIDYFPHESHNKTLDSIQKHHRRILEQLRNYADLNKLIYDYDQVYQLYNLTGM
Nature of the data set: Inhibition of Schistosoma mansoni KDAC8 at 30 uM using (FAM)-labeled peptide as substrate after 60 mins by microfluidic assay.

The target in data set [5] is Histone deacetylase 3/Nuclear receptor corepressor 2 (HDAC3/NCoR2) (Homo sapiens, UniProt O15379+Q9Y618). Described as §1. Particulars: 1 h, 30 µM.
The target of data set [6] is T4, KDAC6 (protein deacetylase HDAC6) (Homo sapiens, UniProt Q9UBN7).
T4 sequence (Q9UBN7 whole entry): T2 sequence (Q9UBN7 whole entry)
The data set is described as §3. Particulars: probe FITC-Histone 4 acetylated peptide.

For another data set, the target named is Histone deacetylase 1 (Homo sapiens, UniProt Q13547). Described as §4. Particulars: 1 h, 30 µM.
For data set [7], the target named is T5, KDAC8 (histone deacetylase 8) (Homo sapiens, UniProt Q9BY41).
T5 sequence (Q9BY41 whole entry): T1 sequence (Q9BY41 whole entry)
The description is as §2. Particulars: probe (FAM)-labeled peptide.

Sequence of Histone deacetylase 3/Nuclear receptor corepressor 2 (HDAC3/NCoR2) (O15379 whole entry): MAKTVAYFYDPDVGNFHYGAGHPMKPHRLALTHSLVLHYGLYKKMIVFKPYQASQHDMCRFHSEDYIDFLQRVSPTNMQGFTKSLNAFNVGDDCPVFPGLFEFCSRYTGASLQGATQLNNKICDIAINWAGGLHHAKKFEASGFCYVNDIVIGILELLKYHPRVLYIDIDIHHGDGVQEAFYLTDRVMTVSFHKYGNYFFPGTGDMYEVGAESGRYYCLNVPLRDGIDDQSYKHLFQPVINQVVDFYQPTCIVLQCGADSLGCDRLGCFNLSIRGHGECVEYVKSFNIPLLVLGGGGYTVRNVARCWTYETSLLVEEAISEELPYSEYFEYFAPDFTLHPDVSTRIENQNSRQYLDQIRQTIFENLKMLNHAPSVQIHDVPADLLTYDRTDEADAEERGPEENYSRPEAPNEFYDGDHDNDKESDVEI
Sequence of Histone deacetylase 3/Nuclear receptor corepressor 2 (HDAC3/NCoR2) (Q9Y618 whole entry): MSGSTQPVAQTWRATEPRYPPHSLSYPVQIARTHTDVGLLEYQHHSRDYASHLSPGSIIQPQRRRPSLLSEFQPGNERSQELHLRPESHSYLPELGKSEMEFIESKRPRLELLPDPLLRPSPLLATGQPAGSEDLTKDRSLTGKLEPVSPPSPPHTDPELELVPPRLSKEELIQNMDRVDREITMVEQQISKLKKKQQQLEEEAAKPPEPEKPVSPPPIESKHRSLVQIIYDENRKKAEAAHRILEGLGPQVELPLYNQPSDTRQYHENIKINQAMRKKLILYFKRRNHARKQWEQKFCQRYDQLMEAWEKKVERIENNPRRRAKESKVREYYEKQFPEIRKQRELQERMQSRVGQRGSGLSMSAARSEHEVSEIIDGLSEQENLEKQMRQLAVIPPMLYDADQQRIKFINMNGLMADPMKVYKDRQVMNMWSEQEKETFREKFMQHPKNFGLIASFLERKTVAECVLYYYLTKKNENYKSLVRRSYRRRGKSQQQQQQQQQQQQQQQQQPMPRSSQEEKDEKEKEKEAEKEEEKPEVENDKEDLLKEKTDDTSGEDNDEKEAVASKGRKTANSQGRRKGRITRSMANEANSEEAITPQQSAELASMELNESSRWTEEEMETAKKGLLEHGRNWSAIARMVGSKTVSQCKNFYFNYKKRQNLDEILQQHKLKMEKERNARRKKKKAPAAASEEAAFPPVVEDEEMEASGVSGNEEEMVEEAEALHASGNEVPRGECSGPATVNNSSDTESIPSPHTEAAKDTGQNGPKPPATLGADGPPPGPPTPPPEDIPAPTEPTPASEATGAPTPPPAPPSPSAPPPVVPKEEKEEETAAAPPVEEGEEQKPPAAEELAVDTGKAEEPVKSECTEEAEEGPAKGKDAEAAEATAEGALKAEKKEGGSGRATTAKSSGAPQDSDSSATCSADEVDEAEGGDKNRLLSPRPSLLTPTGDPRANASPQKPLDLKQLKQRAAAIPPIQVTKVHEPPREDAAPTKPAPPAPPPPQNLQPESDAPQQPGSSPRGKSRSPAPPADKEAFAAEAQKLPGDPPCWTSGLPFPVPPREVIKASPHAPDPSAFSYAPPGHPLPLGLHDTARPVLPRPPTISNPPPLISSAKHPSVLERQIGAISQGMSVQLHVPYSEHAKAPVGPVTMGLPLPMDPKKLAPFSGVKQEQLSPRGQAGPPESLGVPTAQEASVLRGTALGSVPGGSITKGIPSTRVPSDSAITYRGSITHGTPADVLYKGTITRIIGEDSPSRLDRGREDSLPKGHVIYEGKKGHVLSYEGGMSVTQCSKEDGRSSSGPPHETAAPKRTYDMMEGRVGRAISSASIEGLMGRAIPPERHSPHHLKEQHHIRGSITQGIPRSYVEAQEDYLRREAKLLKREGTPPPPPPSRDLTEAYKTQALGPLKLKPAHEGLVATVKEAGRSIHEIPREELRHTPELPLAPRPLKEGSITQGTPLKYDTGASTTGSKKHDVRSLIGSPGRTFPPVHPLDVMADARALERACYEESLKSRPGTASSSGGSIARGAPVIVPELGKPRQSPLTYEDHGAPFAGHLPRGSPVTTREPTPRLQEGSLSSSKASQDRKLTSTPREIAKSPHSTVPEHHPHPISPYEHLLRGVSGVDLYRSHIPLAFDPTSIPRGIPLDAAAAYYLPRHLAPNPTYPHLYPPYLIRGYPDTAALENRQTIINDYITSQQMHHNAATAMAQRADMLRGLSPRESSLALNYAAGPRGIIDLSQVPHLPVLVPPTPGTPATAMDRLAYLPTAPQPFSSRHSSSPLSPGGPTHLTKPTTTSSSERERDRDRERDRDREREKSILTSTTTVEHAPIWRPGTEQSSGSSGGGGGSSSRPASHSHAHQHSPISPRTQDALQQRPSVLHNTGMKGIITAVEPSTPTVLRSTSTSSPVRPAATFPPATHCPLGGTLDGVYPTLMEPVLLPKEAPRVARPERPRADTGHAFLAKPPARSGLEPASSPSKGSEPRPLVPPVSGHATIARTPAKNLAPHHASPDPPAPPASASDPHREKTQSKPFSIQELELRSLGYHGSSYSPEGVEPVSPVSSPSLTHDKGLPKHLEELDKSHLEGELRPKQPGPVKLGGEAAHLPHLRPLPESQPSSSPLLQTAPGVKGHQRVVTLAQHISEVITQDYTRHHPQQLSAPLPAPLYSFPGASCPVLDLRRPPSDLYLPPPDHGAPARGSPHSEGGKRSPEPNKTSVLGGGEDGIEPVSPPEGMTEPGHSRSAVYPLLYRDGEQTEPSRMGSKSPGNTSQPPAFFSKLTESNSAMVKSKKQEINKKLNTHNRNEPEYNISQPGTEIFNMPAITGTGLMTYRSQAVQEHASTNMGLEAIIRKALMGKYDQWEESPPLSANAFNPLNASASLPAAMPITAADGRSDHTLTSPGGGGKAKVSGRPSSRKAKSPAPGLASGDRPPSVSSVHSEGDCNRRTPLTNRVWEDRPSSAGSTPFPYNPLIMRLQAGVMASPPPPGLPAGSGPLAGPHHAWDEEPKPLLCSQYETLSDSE
Sequence of KDAC3/NCOR2 (histone deacetylase 3/nuclear receptor corepressor 2 complex) (O15379 whole entry, the tested form may be a part): as the sequence (O15379 whole entry) above
Sequence of KDAC3/NCOR2 (histone deacetylase 3/nuclear receptor corepressor 2 complex) (Q9Y618 whole entry, further chain, the tested form may be a part): as the sequence (Q9Y618 whole entry) above
Sequence of Histone deacetylase 1 (Q13547 whole entry): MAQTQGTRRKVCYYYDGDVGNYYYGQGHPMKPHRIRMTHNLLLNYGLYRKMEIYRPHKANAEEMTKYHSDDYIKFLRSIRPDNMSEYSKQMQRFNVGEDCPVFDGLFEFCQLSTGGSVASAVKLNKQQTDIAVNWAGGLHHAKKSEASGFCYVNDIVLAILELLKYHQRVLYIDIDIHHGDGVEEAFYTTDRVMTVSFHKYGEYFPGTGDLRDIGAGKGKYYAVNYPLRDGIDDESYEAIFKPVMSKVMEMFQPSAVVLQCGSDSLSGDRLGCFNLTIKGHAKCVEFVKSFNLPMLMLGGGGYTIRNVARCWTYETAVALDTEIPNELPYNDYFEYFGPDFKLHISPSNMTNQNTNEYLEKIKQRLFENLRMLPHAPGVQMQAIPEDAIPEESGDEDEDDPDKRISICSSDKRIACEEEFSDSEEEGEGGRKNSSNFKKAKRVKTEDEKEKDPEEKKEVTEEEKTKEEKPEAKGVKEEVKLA
Sequence of KDAC1 (histone deacetylase 1) (Q13547 whole entry): as above

The inhibition is the change of the read-out against control, counted positive when it falls. For the compound `CC1=NN(c2ccccc2)C(=O)C1/N=N/c1ccc(S(N)(=O)=O)cc1` (stereo not given), the inhibition at 1 h, 30 µM is 6% in [1] and 1% in data set [3]. The “inhibition (INH)” value (against Histone deacetylase 8; in data set [2]) was “Not Active” in each case. The inhibition entry in data set [4] is “inactive”.

As to `Nc1ccccc1SC1CC(=O)N(c2ccccc2Cl)C1=O` (stereo not given), the “inhibition (INH)” value (in data set [5]; against Histone deacetylase 8; against Histone deacetylase 1) was “Not Active” each time. Moreover, the inhibition at 1 h, 30 µM in [6] is 1%. This compound also came in with an inhibition in data set [4] of 1%.

For the compound `Nc1cc(Cl)c(Cl)cc1S(=O)(=O)NO`, the results for the inhibition at 1 h, 30 µM in data set [1], in data set [7] and in data set [6] were 6.7%, 10.4% and 3.7%, respectively. Besides, the “inhibition (INH)” value at Histone deacetylase 1 is “Not Active”. In addition, the inhibition in data set [4] stood at 8.43%.

In the case of `COC(=O)CC1(C(=O)OC)Nc2cc(Cl)c(Cl)cc2S(=O)(=O)N1` (stereo not given), the inhibition at 1 h, 30 µM in data set [1] was determined as 6%; in [7], 17%; in data set [6] it was 3%. Moreover, the “inhibition (INH)” value against Histone deacetylase 1 was “Not Active”. Also, the inhibition in data set [4] is 37%.

`CC1(C)[C@H]2CC[C@H](CNC(=N)CSS(=O)(=O)O)[C@@H]1C2`: the “inhibition (INH)” value (in data set [5]; against Histone deacetylase 8; at Histone deacetylase 1) was “Not Active” in each case. The compound also registered an inhibition at 1 h, 30 µM in data set [6] of 9%. Further, the inhibition result in data set [4] is “inactive”.

`FC(F)(F)c1cccc(OCC2CN=C(S)O2)c1` (stereo not given): the inhibition at 1 h, 30 µM in data set [1] worked out at 6%; in [7], 16%; in [6], 3%; in [3], 2%. Also, in data set [4], the inhibition came to 2%.

Turning to `CCOC(=O)c1[nH]c(C(=O)O)c(OC(=O)CC)c1C`, the “inhibition (INH)” value (in data set [5]; against Histone deacetylase 8; in data set [2]) was “Not Active” in each case. In [3], this compound had an inhibition at 1 h, 30 µM of 5%. Also, the inhibition entry in data set [4] is “inactive”.

Regarding `CCOC(=O)C(Cc1ccc(O)cc1)Nc1nc2ccccc2o1` (stereo not given), the results for the inhibition at 1 h, 30 µM in data set [1] and in [3] were 7% and 1%, respectively. Also, the “inhibition (INH)” value (against Histone deacetylase 8; in data set [2]) was “Not Active” each time. The inhibition entry in data set [4] was “inactive”.

As for `O=[N+]([O-])c1c(N2CCN(CCO)CC2)nc2ccccn12`, the “inhibition (INH)” value (in data set [5]; at Histone deacetylase 1) was “Not Active” each time. Moreover, the inhibition at 1 h, 30 µM was found to be 31% in [7] and 1% in data set [6]. In [4], the inhibition is 2%.

Regarding `COc1ccc([N+](=O)[O-])cc1NS(=O)(=O)c1ccc(C)cc1`, the inhibition at 1 h, 30 µM came to 9% in data set [1], 24% in [7] and 7% in data set [6]. Moreover, the “inhibition (INH)” value at Histone deacetylase 1 is “Not Active”. This compound gave an inhibition in data set [4] of 13%.

On to `CC1=CC(C)(C)N=C(S)N1c1cccc2cc(S(=O)(=O)O)ccc12`, for which the inhibition at 1 h, 30 µM in data set [1] turned out to be 1%; in data set [3], 3%. The “inhibition (INH)” value (against Histone deacetylase 8; in data set [2]) was “Not Active” in each case. Further, the inhibition in data set [4] is 9%.

In the case of `CCOC(=O)Cc1cc(=O)[nH]n(-c2ccccc2)c1=O`, the inhibition at 1 h, 30 µM in data set [1] was 1%; in [7], 3%; in [6] it was 2%; in [3], 2%. Moreover, the inhibition in [4] is 1%.

On to `O=C1Nc2cc(Cl)c(Cl)cc2S(=O)(=O)N1O`, for which the inhibition at 1 h, 30 µM in [1] amounted to 0.8%; in [7] it was 23.5%; in data set [6], 12.3%. Also, the “inhibition (INH)” value at Histone deacetylase 1 is “Not Active”. In addition, in data set [4], the inhibition result is “inactive”.

As to `O=C(O)Cc1ccc(/N=N/c2c(O)c(C(=O)O)cc3ccccc23)cc1`, the inhibition at 1 h, 30 µM in [1] was determined as 1%; in data set [7], 19%; in [6], 3%; in data set [3], 2%. Besides, the inhibition result in data set [4] was “inactive”.

With `Cc1cc(OCCCCOc2ccc(C#N)cc2)ccc1[N+](=O)[O-]`, the “inhibition (INH)” value (in data set [5]; against Histone deacetylase 1) was “Not Active” throughout. Further, the inhibition at 1 h, 30 µM was 19% in data set [7] and 3% in data set [6]. Further, the inhibition result in data set [4] was “inactive”.

`O=C(Nc1cccc([N+](=O)[O-])c1)c1ccc2ccccc2c1O`: the inhibition at 1 h, 30 µM is 10% in [1] and 3% in [3]. Further, the “inhibition (INH)” value (against Histone deacetylase 8; in [2]) was “Not Active” each time. Further, the inhibition result in data set [4] is “inactive”.
